Data taken from patent US20070149580A1, “USE OF PEROXISOME PROLIFERATOR ACTIVATED RECEPTOR DELTA AGONISTS FOR THE TREATMENT OF MS AND OTHER DEMYELINATING DISEASES” (AVENTIS PHARMACEUTICALS INC., priority 2004, published 2007).

What was measured:
[1] = biological target: T1, Human PPAR gamma (Homo sapiens, UniProt P37231); assay: Cellular PPAR gamma luciferase reporter assay; format: cell-based
T1 construct: expressed in transfected cells
T1 sequence (P37231 1-505): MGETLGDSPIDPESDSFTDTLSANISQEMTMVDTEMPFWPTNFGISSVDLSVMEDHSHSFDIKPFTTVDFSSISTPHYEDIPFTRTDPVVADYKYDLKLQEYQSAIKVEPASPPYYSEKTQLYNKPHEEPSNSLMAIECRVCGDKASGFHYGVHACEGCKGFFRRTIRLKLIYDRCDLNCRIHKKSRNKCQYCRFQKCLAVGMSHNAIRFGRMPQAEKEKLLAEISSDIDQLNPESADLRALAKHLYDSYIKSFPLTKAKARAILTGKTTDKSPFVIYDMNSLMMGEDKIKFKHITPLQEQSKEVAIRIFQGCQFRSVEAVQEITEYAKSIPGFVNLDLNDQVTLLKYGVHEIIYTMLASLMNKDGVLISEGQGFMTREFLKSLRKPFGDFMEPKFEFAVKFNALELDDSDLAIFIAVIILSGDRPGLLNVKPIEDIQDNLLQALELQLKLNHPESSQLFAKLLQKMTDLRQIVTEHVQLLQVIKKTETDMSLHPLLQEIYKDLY
Method: Cell Based PPAR Gamma Assay Protocol
To perform cell based assays a luciferase assay is performed in 96 well plates as follows:
Dilution steps and addition of diluted compounds is done using a Beckman Biomek 2000 or Beckman FX robot.
• Aspirate medium from cells • Freeze plates at −20° C. (optional) • Thaw plates for 30 min (if necessary) • Add 50 μl Bright-Glo-Luciferase Assay Reagent (Promega, Cat. No. E2650) • Incubate for 10 min in the dark • Measure luminescence 2 sec per well (Wallac Microbeta) Data Analysis: […]

[2] = biological target: T2, Mouse PPAR delta (Mus musculus, UniProt P35396); assay: Mouse PPAR delta GAL4/luciferase reporter assay; format: cell-based
T2 construct: expressed in transfected cells
T2 sequence (P35396 1-440): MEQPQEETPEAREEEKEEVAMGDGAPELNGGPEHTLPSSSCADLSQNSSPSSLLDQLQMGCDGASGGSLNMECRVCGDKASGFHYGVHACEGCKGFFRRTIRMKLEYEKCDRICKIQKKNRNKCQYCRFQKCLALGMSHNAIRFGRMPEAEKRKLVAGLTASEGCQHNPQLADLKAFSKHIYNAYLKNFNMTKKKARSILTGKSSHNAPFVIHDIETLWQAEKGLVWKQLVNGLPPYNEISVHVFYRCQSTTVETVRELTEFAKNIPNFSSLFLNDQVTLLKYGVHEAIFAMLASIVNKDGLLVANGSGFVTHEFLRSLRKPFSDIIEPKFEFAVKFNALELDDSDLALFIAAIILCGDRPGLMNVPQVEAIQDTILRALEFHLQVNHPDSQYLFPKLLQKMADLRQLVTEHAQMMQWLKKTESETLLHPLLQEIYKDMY
Method: The optimum nuclear receptor selectivity profile is determined by the GAL4/luciferase reporter assays.

`CCCc1c(OCCCOc2ccc(OCC(=O)O)cc2)ccc(C(C)=O)c1O` [Compound 2] showed an EC50 [1] of 1.1 µM and an EC50 [2] of 1 µM.
